US20250215029A1 (Recludix Pharma, Inc., priority 2022, published 2025)
Where two headings read alike, the source gives them in different places.

Columns and labels:
[1] = biological target: T1, Recombinant STAT3 protein (STAT3 (G127-I722)) (Homo sapiens, UniProt P40763); assay: STAT3 Fluorescence Polarization (FP) Assay; assay type: binding; conditions: probe 5-FAM-GpYLPQTV-NH2 2 nM, 45-minute incubation
T1 construct: Recombinant STAT3 protein (STAT3 (G127-I722))
Outline: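 Compounds in serial dilution receive a premix of STAT3 (G127-I722, 25 nM) and fluorescent phosphotyrosine peptide 5-FAM-GpYLPQTV-NH2 (2 nM) at pH 7.4. After 45 min at room temperature, FP is measured and IC50 derived by nonlinear regression.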

[2] = biological target: T2, Recombinant STAT6 protein (STAT6 (W123-T658)) (Homo sapiens, UniProt P42226); assay: STAT6 Fluorescence Polarization (FP) Assay; assay type: binding; conditions: probe 5-FAM-Ap[…]-NH2 2 nM, 45-minute incubation
T2 construct: Recombinant STAT6 protein (STAT6 (W123-T658))
T2 sequence (P42226 123-658): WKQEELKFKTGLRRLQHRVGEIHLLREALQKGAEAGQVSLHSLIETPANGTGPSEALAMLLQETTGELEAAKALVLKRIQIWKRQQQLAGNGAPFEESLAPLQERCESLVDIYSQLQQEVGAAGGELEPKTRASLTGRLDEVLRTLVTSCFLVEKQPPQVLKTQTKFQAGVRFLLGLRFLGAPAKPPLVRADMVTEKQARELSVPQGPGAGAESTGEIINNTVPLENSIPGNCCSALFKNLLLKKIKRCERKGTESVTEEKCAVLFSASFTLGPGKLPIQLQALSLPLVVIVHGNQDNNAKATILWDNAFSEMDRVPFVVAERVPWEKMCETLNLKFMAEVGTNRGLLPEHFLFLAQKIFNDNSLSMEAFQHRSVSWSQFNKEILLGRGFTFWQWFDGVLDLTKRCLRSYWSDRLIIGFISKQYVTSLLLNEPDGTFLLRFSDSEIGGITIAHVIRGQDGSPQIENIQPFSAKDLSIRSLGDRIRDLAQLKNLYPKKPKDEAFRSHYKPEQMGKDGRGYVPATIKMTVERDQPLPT
Outline: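 Displacement of a fluorescent phosphotyrosine peptide (2 nM) from 250 nM STAT6 (W123-T658) is measured by polarization after a 45-minute room-temperature incubation. Compounds are titrated serially at 1% DMSO, and IC50 values derive from regression of mP on log concentration.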

[3] = STAT3 25 nM, read-out: STAT3 (FP assay IC50)
[4] = STAT6 250 nM, read-out: STAT6 (FP assay IC50)
[5] = STAT3 (G127-I722) 25 nM, read-out: STAT3 (FP assay IC50 class)
[6] = STAT6 (W123-T658) 250 nM, read-out: STAT6 (FP assay IC50 class)

T1 sequence (P40763 127-722): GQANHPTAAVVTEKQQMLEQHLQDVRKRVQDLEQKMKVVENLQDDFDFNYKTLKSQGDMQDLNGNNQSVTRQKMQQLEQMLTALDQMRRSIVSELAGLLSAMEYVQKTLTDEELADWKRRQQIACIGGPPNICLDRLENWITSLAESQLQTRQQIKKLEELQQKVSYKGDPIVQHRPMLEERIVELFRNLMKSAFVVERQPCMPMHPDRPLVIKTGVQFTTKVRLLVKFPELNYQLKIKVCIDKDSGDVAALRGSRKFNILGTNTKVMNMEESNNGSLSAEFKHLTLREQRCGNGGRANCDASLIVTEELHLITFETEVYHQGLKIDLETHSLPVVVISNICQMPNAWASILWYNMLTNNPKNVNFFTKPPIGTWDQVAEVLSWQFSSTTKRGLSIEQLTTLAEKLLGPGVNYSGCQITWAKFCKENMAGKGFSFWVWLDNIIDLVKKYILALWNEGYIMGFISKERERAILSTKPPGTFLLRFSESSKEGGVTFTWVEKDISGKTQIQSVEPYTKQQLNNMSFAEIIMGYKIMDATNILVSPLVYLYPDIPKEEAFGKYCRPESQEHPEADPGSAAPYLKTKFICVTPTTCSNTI

Structure (SMILES) | IC50 [1, 3] [µM] | IC50 [2, 4] [µM] | IC50 [1, 5] [µM] | IC50 [2, 6] [µM]
O=C(N[C@H]1CCC[C@H]2CC[C@@H](C(=O)N3CC(C4CCOCC4)C3)N2C1=O)c1cc2cc(C(F)(F)P(=O)(O)O)ccc2s1 [Compound 119, (difluoro(2-(((3S,6S,9aS)-5-oxo-3-(3-(tetrahydro-2H-pyran-4-yl)azetidine-1-carbonyl)octahydro-1H-pyrrolo[1,2-a]azepin-6-yl)carbamoyl)benzo[b]thiophen-5-yl)methyl) phosphonic acid] | 0.1 to 1 | 3 to 30 |  | 
COc1cncc([C@H]2CN(C(=O)[C@@H]3CC[C@@H]4CCCC[C@H](NC(=O)c5cc6cc([C@H](F)P(=O)(O)O)ccc6s5)C(=O)N43)C3(CC3)[C@@H]2C#N)c1 (single isomer, unassigned) [Compound 848] |  |  | 1 to 10 | 0.3 to 3
C[C@@H]1C[C@H]2CC[C@@H](C(=O)N3CC(c4cnccc4N(C)C)C3)N2C(=O)[C@@H](NC(=O)c2cc3cc([C@H](F)P(=O)(O)O)ccc3s2)C1 [Compound 735, ((R)-(2-(((3S,6S,8S,9aR)-3-(3-(4-(dimethylamino)pyridin-3-yl)azetidine-1-carbonyl)-8-methyl-5-oxooctahydro-1H-pyrrolo[1,2-a]azepin-6-yl)carbamoyl)benzo [b]thiophen-5-yl)fluoromethyl) phosphonic acid] |  |  | < 0.1 | 3 to 30
Cc1cc(C#N)cnc1C1CN(C(=O)[C@@H]2CC[C@@H]3CCCC[C@H](NC(=O)c4cc5cc(C(F)(F)P(=O)(O)O)ccc5s4)C(=O)N32)C1 [Compound 496, ((2-(((3S,6S,10aS)-3-(3-(5-cyano-3-methylpyridin-2-yl)azetidine-1-carbonyl)-5-oxodecahydropyrrolo[1,2-a]azocin-6-yl)carbamoyl)benzo[b]thiophen-5-yl)difluoromethyl)phosphonic acid] |  |  | < 0.1 | 0.3 to 3
O=C(N[C@H]1CC[C@H]2CC[C@@H](C(=O)N3CC(C(=O)N4CCOCC4)C3)N2C1=O)c1cc2cc(C(F)(F)P(=O)(O)O)ccc2s1 [Compound 731, (difluoro(2-(((3S,6S,8aS)-3-(3-(morpholine-4-carbonyl)azetidine-1-carbonyl)-5-oxooctahydro-indolizin-6-yl)carbamoyl)benzo [b]thiophen-5-yl)methyl) phosphonic acid] |  |  | 1 to 10 | 3 to 30
O=C(N[C@H]1CCCC[C@H]2CC[C@@H](C(=O)N3CC(c4ccc(=O)[nH]c4)C3)N2C1=O)c1cc2cc(C(F)(F)P(=O)(O)O)ccc2s1 [Compound 816, (difluoro(2-(((3S,6S,10aS)-5-oxo-3-(3-(6-oxo-1,6-dihydropyridin-3-yl)azetidine-1-carbonyl)decahydropyrrolo[1,2-a]azocin-6-yl)carbamoyl)benzo [b]thiophen-5-yl)methyl) phosphonic acid] |  |  | 0.1 to 1 | 3 to 30
O=C(N[C@H]1CCC[C@H]2CC[C@@H](C(=O)N3CC(c4cnccc4N4CCCC4=O)C3)N2C1=O)c1cc2cc(CP(=O)(O)O)ccc2s1 [Compound 850, ((2-(((3S,6S,9aS)-5-oxo-3-(3-(4-(2-oxopyrrolidin-1-yl)pyridin-3-yl)azetidine-1-carbonyl)octahydro-1H-pyrrolo[1,2-a]azepin-6-yl)carbamoyl)benzo [b]thiophen-5-yl)methyl) phosphonic acid] |  |  | 1 to 10 | 3 to 30
CCc1ccncc1C1CN(C(=O)[C@@H]2CC[C@@H]3CCC[C@H](NC(=O)c4cc5cc(CP(=O)(O)O)ccn5n4)C(=O)N32)C1 [Compound 618, ((2-(((3S,6S,9aS)-3-(3-(4-ethylpyridin-3-yl)azetidine-1-carbonyl)-5-oxooctahydro-1H-pyrrolo[1,2-a]azepin-6-yl)carbamoyl)pyrazolo[1,5-a]pyridin-5-yl)methyl) phosphonic acid] |  |  | 1 to 10 | 3 to 30
N#C[C@@H]1CN(C(=O)[C@@H]2CC[C@@H]3CCCC[C@H](NC(=O)c4ccc5ccc(C(F)P(=O)(O)O)cc5c4)C(=O)N32)C[C@H]1c1ccccc1 (single isomer, unassigned) [Compound 226] |  |  | 1 to 10 | ≤ 0.3
Cc1cc(C#N)ccc1C1CN(C(=O)[C@@H]2CC[C@@H]3CCCC[C@H](NC(=O)c4cc5cc(C(F)(F)P(=O)(O)O)ccc5s4)C(=O)N32)C1 [Compound 1110, ((2-(((3S,6S,10aS)-3-(3-(4-cyano-2-methylphenyl)azetidine-1-carbonyl)-5-oxodecahydropyrrolo[1,2-a]azocin-6-yl)carbamoyl)benzo[b]thiophen-5-yl)difluoromethyl)phosphonic acid] |  |  | < 0.1 | 0.3 to 3
O=C(N[C@H]1CCCC[C@H]2CC[C@@H](C(=O)N3CCC(c4n[nH]cc4F)CC3)N2C1=O)c1cc2cc(C(F)P(=O)(O)O)ccc2s1 (stereo partly drawn) [Compound 587, (fluoro(2-(((3S,6S,10aS)-3-(4-(4-fluoro-1H-pyrazol-3-yl)piperidine-1-carbonyl)-5-oxodecahydropyrrolo[1,2-a]azocin-6-yl)carbamoyl)benzo[b]thiophen-5-yl)methyl)phosphonic acid] |  |  | 1 to 10 | 3 to 30
O=C(N[C@H]1CCC[C@H]2CC[C@@H](C(=O)N3CC(c4cnccc4N4C[C@@H]5C[C@H]4CO5)C3)N2C1=O)c1cc2cc(C(F)P(=O)(O)O)ccc2s1 (stereo partly drawn) [Compound 683, ((2-(((3S,6S,9aS)-3-(3-(4-((1S,4S)-2-oxa-5-azabicyclo[2.2.1]heptan-5-yl)pyridin-3-yl)azetidine-1-carbonyl)-5-oxooctahydro-1H-pyrrolo[1,2-a]azepin-6-yl)carbamoyl)benzo [b]thiophen-5-yl)fluoromethyl) phosphonic acid] |  |  | < 0.1 | 3 to 30
Cc1nnc([C@H]2[C@H](c3ccccc3)CN2C(=O)[C@@H]2CC[C@@H]3CCC[C@H](NC(=O)c4cc5cc(C(F)P(=O)(O)O)ccc5s4)C(=O)N32)o1 (stereo partly drawn) [Compound 673] |  |  | 0.1 to 1 | 3 to 30
O=C(N[C@H]1CCCC[C@H]2CC[C@@H](C(=O)N3CCC(c4cc[nH]n4)CC3)N2C1=O)c1cc2cc(C(F)P(=O)(O)O)ccc2s1 (stereo partly drawn) [Compound 589, ((2-(((3S,6S,10aS)-3-(4-(1H-pyrazol-3-yl)piperidine-1-carbonyl)-5-oxodecahydropyrrolo[1,2-a]azocin-6-yl)carbamoyl)benzo[b]thiophen-5-yl)fluoromethyl)phosphonic acid] |  |  | 1 to 10 | 3 to 30
O=C(N[C@H]1CC2(CC[C@H]3CC[C@@H](C(=O)N4CC(c5cccnc5)C4)N3C1=O)CC2)c1cc2cc(CP(=O)(O)O)ccc2s1 [Compound 216, ((2-(((3′S,6′S,10a′S)-5′-oxo-3′-(3-(pyridin-3-yl)azetidine-1-carbonyl)octahydro-5′H-spiro[cyclopropane-1,8′-pyrrolo[1,2-a]azocin]-6′-yl)carbamoyl)benzo[b]thiophen-5-yl)methyl)phosphonic acid] |  |  | 0.1 to 1 | 3 to 30
O=C(N[C@H]1CCCC[C@H]2CC[C@@H](C(=O)N3CC(c4ccccc4)CC34CC4)N2C1=O)c1ccc2ccc(CP(=O)(O)O)cc2c1 (stereo partly drawn) [Compound 884, ((7-(((3S,6S,10aS)-5-oxo-3-(6-phenyl-4-azaspiro[2.4]heptane-4-carbonyl)decahydropyrrolo[1,2-a]azocin-6-yl)carbamoyl)naphthalen-2-yl)methyl) phosphonic acid] |  |  | 1 to 10 | 0.3 to 3
C[C@H]1COCCN1c1ccncc1C1CN(C(=O)[C@@H]2CC[C@@H]3CCC[C@H](NC(=O)c4cc5cc(CP(=O)(O)O)ccc5s4)C(=O)N32)C1 [Compound 679, ((2-(((3S,6S,9aS)-3-(3-(4-((S)-3-methylmorpholino)pyridin-3-yl)azetidine-1-carbonyl)-5-oxooctahydro-1H-pyrrolo[1,2-a]azepin-6-yl)carbamoyl)benzo [b]thiophen-5-yl)methyl) phosphonic acid] |  |  | < 0.1 | 3 to 30
COc1ccc(N(C)C(=O)[C@@H]2CC[C@@H]3CCCC[C@H](NC(=O)c4cc5cc(C(F)(F)P(=O)(O)O)ccc5s4)C(=O)N32)cn1 [Compound 44, (difluoro(2-(((3S,6S,10aS)-3-((6-methoxypyridin-3-yl)(methyl)carbamoyl)-5-oxodecahydro-pyrrolo[1,2-a]azocin-6-yl)carbamoyl)benzo[b]thiophen-5-yl)methyl) phosphonic acid] | 1 to 10 | 0.3 to 3 |  | 
